Test results reported in US20230365563A1, “QUINAZOLINE COMPOUND AND APPLICATION THEREOF” (SHANGHAI PHARMACEUTICALS HOLDING CO., LTD., priority 2020, published 2023).
Where a name gives a salt, the structure may show the parent alone.

Columns and labels:
[1] = target: T1, KRAS-G12D and SOS1 (Homo sapiens, UniProt P01116, G12D); experiment: Inhibition of KRAS-G12D/SOS1 binding (Cisbio binding kit, 665/615 ratio), Effect Embodiment A; conditions: read-out: GTP-KRAS-G12D:SOS1 IC50
T1 construct: purchased
T1 sequence (P01116 1-188 isoform P01116-2 G12D): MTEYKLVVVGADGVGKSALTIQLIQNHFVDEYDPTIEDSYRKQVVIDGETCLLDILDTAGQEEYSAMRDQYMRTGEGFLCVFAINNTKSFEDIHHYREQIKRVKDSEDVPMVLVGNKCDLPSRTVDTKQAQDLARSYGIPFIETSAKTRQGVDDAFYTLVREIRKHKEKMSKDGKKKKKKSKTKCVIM
Method in brief: (§1)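 Compounds are tested over eleven threefold dilution steps in duplicate, with final DMSO at 1%.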

[2] = target: T2, KRAS_G12D and cRAF (Homo sapiens, UniProt P01116, G12D); experiment: Inhibition of KRAS_G12D/cRAF binding (Cisbio binding kit, 665/615 ratio), Effect Embodiment B; conditions: read-out: GTP-KRAS-G12D:CRAF IC50
T2 construct: purchased
T2 sequence (P01116 1-188 isoform P01116-2 G12D): as above
Method in brief: as §1

[3] = target: T3, KRAS_WT and SOS1 (Homo sapiens, UniProt P01116); experiment: Inhibition of KRAS_WT/SOS1 binding (Cisbio binding kit, 665/615 ratio), Effect Embodiment C; conditions: read-out: GTP-KRAS-WT:SOS1 IC50
T3 construct: purchased
T3 sequence (P01116 1-188 isoform P01116-2): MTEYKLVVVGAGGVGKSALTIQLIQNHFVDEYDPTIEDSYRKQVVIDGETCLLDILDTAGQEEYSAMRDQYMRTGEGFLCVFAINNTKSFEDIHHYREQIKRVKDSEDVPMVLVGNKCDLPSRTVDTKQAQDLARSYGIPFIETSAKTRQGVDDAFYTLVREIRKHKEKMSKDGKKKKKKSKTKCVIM
Method in brief: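 Compounds tested as 3-fold, 11-point dilutions in duplicate at 1% DMSO final against the KRAS_WT/SOS1 binding system. IC50 derived by nonlinear regression fit.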

SMILES	IC50 [1] [nM]	IC50 [2] [nM]	IC50 [3] [nM]
CN(C)C1CN(c2nc(N3CC4(CCNCC4)C3)c3cc(Cl)c(-c4cc(O)cc5ccccc45)c(F)c3n2)C1 (single isomer, unassigned) [Compound 10a, (R or S)-4-(6-chloro-2-(3-(dimethylamino)azetidin-1-yl)-8-fluoro-4-(2,7-diazaspiro[3.5]nonan-2-yl)quinazolin-7-yl)naphthalen-2-ol]	780	3230	10300
Oc1cc(-c2c(Cl)cc3c(N4CC5CCC(C4)N5)nc(OCCN4CCCC4)nc3c2F)c2ccccc2c1 (single isomer, unassigned) [Compound 116, 4-((S or R)-4-((1R,5S)-3,8-diazabicyclo[3.2.1]octan-3-yl)-6-chloro-8-fluoro-2-(2-(pyrrolidin-1-yl)ethoxy)quinazolin-7-yl)naphthalen-2-ol dihydrochloride]	65.7	189	3380
NCCCOc1nc(N2CC3CCC(C2)N3)c2cc(Cl)c(-c3cc(O)cc4ccccc34)c(F)c2n1 (single isomer, unassigned) [Compound 94, 4-((S or R)-2-(3-aminopropoxy)-4-((1R,5S)-3,8-diazabicyclo[3.2.1]octan-3-yl)-6-chloro-8-fluoroquinazolin-7-yl)naphthalen-2-ol dihydrochloride]	53.2	164	5220
CCCN(C)CCCOc1nc(N2CC3CCC(C2)N3)c2cc(Cl)c(-c3cc(O)cc4ccccc34)c(F)c2n1 (single isomer, unassigned) [Compound 51a, 4-((S or R)-4-((1R,5S)-3,8-diazabicyclo[3.2.1]octan-3-yl)-6-chloro-8-fluoro-2-(3-(methyl(propyl)amino)propoxy)quinazolin-7-yl)naphthalen-2-ol carboxylate]	30.8	144	1420
CN(C)CCCNc1nc(N2C[C@H]3CC[C@@H](C2)N3)c2cc(Cl)c(-c3cc(O)cc4ccccc34)c(F)c2n1 (single isomer, unassigned) [Compound 55a, (S or R) 4-(4-((1R,5S)-3,8-diazabicyclo[3.2.1]octan-3-yl)-6-chloro-2-((3-(dimethylamino)propyl)amino)-8-fluoroquinazolin-7-yl)naphthalen-2-ol]	1120	9950	> 100000
C[C@@H]1COC[C@@H](C)N1CCCOc1nc(N2C[C@H]3CC[C@@H](C2)N3)c2cc(Cl)c(-c3cc(O)cc4ccccc34)c(F)c2n1 (single isomer, unassigned) [Compound 164, (R or S)-4-(4-((1R,5S)-3,8-diazabicyclo[3.2.1]octan-3-yl)-6-chloro-2-(3-((3R,5R)-3,5-dimethylmorpholinyl)propoxy)-8-fluoroquinazolin-7-yl)naphthalen-2-ol dihydrochloride]	43.9	115	2530

Further lines, results first:

IC50 [1] [nM]	IC50 [2] [nM]	IC50 [3] [nM]	SMILES
11.4	6.11	23.5	Oc1cc(Cl)c(C2CC2)c(-c2c(Cl)cc3c(N4CC5CCC(C4)N5)nc(OC[C@@]45CCCN4C[C@H](F)C5)nc3c2F)c1 (single isomer, unassigned) [Compound 198a, 3-((R or S)-4-((1R,5S)-3,8-diazabicyclo[3.2.1]octan-3-yl)-6-chloro-8-fluoro-2-((2R,7aS)-2-fluorotetrahydro-1H-pyrrolin-7a(5H)-yl)methoxy)quinazolin-7-yl)-5-chloro-4-cyclopropylphenol formate]
59.6	199	7850	CC1OCCN(CCCOc2nc(N3CC4CCC(C3)N4)c3cc(Cl)c(-c4cc(O)cc5ccccc45)c(F)c3n2)C1C (single isomer, unassigned) [Compound 265b, 4-((R or S)-4-((1R,5S)-3,8-diazabicyclo[3.2.1]octan-3-yl)-6-chloro-2-(3-((2S or 2R, 3R or 3S)-2,3-dimethylmorpholinyl)propoxy)-8-fluoroquinazolin-7-yl)naphthalen-2-ol diformate]
15.3	28.9	292	C[C@H]1C[C@@H](COc2nc(N3CC4CCC(C3)N4)c3cc(Cl)c(-c4cc(O)cc5ccccc45)c(F)c3n2)N(C)C1 (single isomer, unassigned) [Compound 190, 4-((R or S)-4-((1R,5S)-3,8-diazabicyclo[3.2.1]octan-3-yl)-6-chloro-2-((2S,4S)-1,4-dimethylpyrrolidin-2-yl)methoxy)-8-fluoroquinazolin-7-yl)naphthalen-2-ol diformate]
9.86	11.4	179	CCc1cccc2cc(O)cc(-c3c(F)cc4c(N5CC6CCC(C5)N6)nc(OCCCN5C6CCC5COC6)nc4c3F)c12 (single isomer, unassigned) [Compound 271a, 4-((7S or 7R)-2-(3-(3-oxa-8-azabicyclo[3.2.1]octan-8-yl)propoxy)-4-((1R,5S)-3,8-diazabicyclo[3.2.1]octan-3-yl)-6,8-difluoroquinazolin-7-yl)-5-ethylnaphthalen-2-ol diformate]
10.1	11.3	29.1	C=CCN1CCC[C@H]1COc1nc(N2CC3CCC(C2)N3)c2cc(F)c(-c3cc(O)cc4ccc(F)c(CC)c34)c(F)c2n1 (single isomer, unassigned) [Compound 287a, 4-((S or R)-2-((S)-1-allylpyrrolidin-2-yl)methoxy)-4-((1R,5S)-3,8-diazacyclo[3.2.1]octan-3-yl)-6,8-difluoroquinazolin-7-yl)-5-ethyl-6-fluoronaphthalen-2-ol dihydrochloride]
40.5	121	1190	Oc1cc(-c2c(Cl)cc3c(N4CC5CCC(C4)N5)nc(OCCCN4C5CCCC4COC5)nc3c2F)c2ccccc2c1 (single isomer, unassigned) [Compound 177, (R or S)-4-(2-(3-((1R,5S)-3-oxa-9-azabicyclo[3.3.1]nonan-9-yl)propoxy)-4-((1R,5S)-3,8-diazabicyclo[3.2.1]octan-3-yl)-6-chloro-8-fluoroquinazolin-7-yl)naphthalen-2-ol formate]
17.8	17.8	2070	C[C@@H](COc1nc(N2C[C@H]3CC[C@@H](C2)N3)c2cc(Cl)c(-c3cc(O)cc4ccccc34)c(F)c2n1)CN1[C@@H]2CCC[C@H]1COC2 (single isomer, unassigned) [Compound 210, (S or R) 4-(2-((R)-3-((1R,5S)-3-oxa-9-azabicyclo[3.3.1]nonan-9-yl)-2-methylpropoxy)-4-((1R,5S)-3,8-diazabicyclo[3.2.1]octan-3-yl)-6-chloro-8-fluoroquinazolin-7-yl)naphthalen-2-ol diformate]
11.7	32.1	342	Oc1cc(-c2c(Cl)cc3c(N4CC5CCC(C4)N5)nc(OCC4CCC5COCCN5C4)nc3c2F)c2ccccc2c1 (single isomer, unassigned) [Compound 264a, 4-((S or R)-4-((1R,5S)-3,8-diazacyclo[3.2.1]octan-3-yl)-6-chloro-8-fluoro-2-((7S or 7R, 9aS or 9aR)-octahydropyridine[2,1-c][1,4]oxazin-7-yl)methoxy)quinazolin-7-yl)naphthalen-2-ol formate]
